Results taken from US11840686B2, “Modulation of prekallikrein (PKK) expression” (Ionis Pharmaceuticals, Inc., priority 2013, dated 2023).
Strand notation (5' to 3'): a small letter for the sugar, then the base; units joined by * are phosphorothioate-linked, units joined directly phosphodiester-linked; [ ] holds rarer units or linkages, { } end groups; capitals alone tell only the bases. e = 2'-O-(2-methoxyethyl) (MOE); [5mC] = 5-methylcytosine; d = 2'-deoxy (DNA)

Tested on: human PKK mRNA
Assay: Antisense inhibition of human PKK mRNA in HepaRG cells, 5,000 nM (Example 2)
Type: cell-based
Summary of the method: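 Percent inhibition of PKK mRNA is reported relative to untreated cells, after adjustment for total RNA by RIBOGREEN. Gapmers of 16–20 nucleosides with 2′-MOE wings were delivered at 5,000 nM by electroporation into HepaRG cells and left for roughly 24 hours before RNA isolation.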

[1] = HepaRG cells, electroporation, 5,000 nM antisense oligonucleotide, approx. 24 hours, primer probe set RTS3454, relative to untreated control cells, Table 11
[2] = HepaRG cells, electroporation, 5,000 nM antisense oligonucleotide, approx. 24 hours, primer probe set RTS3454, relative to untreated control cells, Table 12
[3] = Table 13, human PKK mRNA in HepaRG cells, 5-10-5 gapmers

| Substance | % inhibition [2] [%] | further results |
| --- | --- | --- |
| 547523 (antisense eT*eT*eG*eT*e[5mC]*dA*dG*d[5mC]*d[5mC]*d[5mC]*d[5mC]*dT*dG*dG*dT*eT*eA*e[5mC]*eG*eG) [compound 547523] |  | % inhibition [1]: 69% |
| 547524 (antisense e[5mC]*eA*eT*eT*eG*dT*d[5mC]*dA*dG*d[5mC]*d[5mC]*d[5mC]*d[5mC]*dT*dG*eG*eT*eT*eA*e[5mC]) [compound 547524] |  | % inhibition [1]: 58% |
| 547525 (antisense e[5mC]*e[5mC]*eT*e[5mC]*eG*d[5mC]*dA*dT*dT*dG*dT*d[5mC]*dA*dG*d[5mC]*e[5mC]*e[5mC]*e[5mC]*eT*eG) [compound 547525] |  | % inhibition [1]: 78% |
| 547526 (antisense eG*e[5mC]*eG*eA*e[5mC]*d[5mC]*dT*d[5mC]*dG*d[5mC]*dA*dT*dT*dG*dT*e[5mC]*eA*eG*e[5mC]*e[5mC]) [compound 547526] |  | % inhibition [1]: 59% |
| 547527 (antisense e[5mC]*eT*e[5mC]*eA*eG*dT*dT*dG*d[5mC]*dG*dA*d[5mC]*d[5mC]*dT*d[5mC]*eG*e[5mC]*eA*eT*eT) [compound 547527] |  | % inhibition [1]: 58% |
| 547528 (antisense e[5mC]*eA*e[5mC]*eA*eG*dT*d[5mC]*dA*dT*dG*dG*dA*dG*dA*dT*e[5mC]*eT*e[5mC]*eA*eG) [compound 547528] |  | % inhibition [1]: 78% |
| 547529 (antisense eA*e[5mC]*eA*e[5mC]*eA*d[5mC]*dA*dG*dT*d[5mC]*dA*dT*dG*dG*dA*eG*eA*eT*e[5mC]*eT) [compound 547529] | 49 |  |
| 547530 (antisense eA*e[5mC]*eA*eA*e[5mC]*dA*d[5mC]*dA*d[5mC]*dA*dG*dT*d[5mC]*dA*dT*eG*eG*eA*eG*eA) [compound 547530] | 63 |  |
| 547531 (antisense eT*eT*eA*eT*eT*dT*d[5mC]*dA*d[5mC]*dA*dA*d[5mC]*dA*d[5mC]*dA*e[5mC]*eA*eG*eT*e[5mC]) [compound 547531] | 69 |  |
| 547532 (antisense e[5mC]*eT*eG*e[5mC]*e[5mC]*dA*dA*d[5mC]*dA*dG*dT*dT*dT*d[5mC]*dA*eA*e[5mC]*eT*eT*eT) [compound 547532] | 65 |  |
| 547533 (antisense eT*eT*eT*eT*eG*d[5mC]*dT*dT*dG*dG*d[5mC]*dT*dT*d[5mC]*dA*eA*eT*eA*eT*eT) [compound 547533] | 23 |  |
| 547534 (antisense eA*eT*e[5mC]*eT*eG*dA*d[5mC]*dT*dA*dG*dT*dG*dA*dA*dT*eG*eG*e[5mC]*eT*eT) [compound 547534] | 72 |  |
| 547535 (antisense eA*eG*eA*e[5mC]*eA*dG*d[5mC]*d[5mC]*d[5mC]*dA*d[5mC]*d[5mC]*dA*dA*d[5mC]*eA*eA*eT*e[5mC]*eT) [compound 547535] | 28 |  |
| 547536 (antisense eT*eG*e[5mC]*eA*eT*dA*dG*dA*d[5mC]*d[5mC]*d[5mC]*d[5mC]*dA*dA*d[5mC]*eA*eG*eA*e[5mC]*eA) [compound 547536] | 48 |  |
| 547537 (antisense e[5mC]*e[5mC]*eT*eG*eT*dG*d[5mC]*dA*dT*dA*dG*dA*d[5mC]*d[5mC]*d[5mC]*e[5mC]*eA*eA*e[5mC]*eA) [compound 547537] | 65 |  |
| 547538 (antisense e[5mC]*e[5mC]*eA*eG*e[5mC]*dA*dG*dA*dA*dA*dT*d[5mC]*d[5mC]*dT*dG*eT*eG*e[5mC]*eA*eT) [compound 547538] | 77 |  |
| 547539 (antisense eA*eG*eA*eA*e[5mC]*dT*d[5mC]*d[5mC]*dA*dG*d[5mC]*dA*dG*dA*dA*eA*eT*e[5mC]*e[5mC]*eT) [compound 547539] | 43 |  |
| 547540 (antisense eT*eT*eG*eT*eG*dT*dG*dG*d[5mC]*d[5mC]*d[5mC]*dT*d[5mC]*dT*dT*eA*eA*eG*eT*e[5mC]) [compound 547540] | 44 |  |
| 547541 (antisense eT*eA*eT*eA*eG*dA*dT*dG*dT*dT*dT*dA*dT*dT*dG*eT*eA*eG*e[5mC]*e[5mC]) [compound 547541] | 36 |  |
| 547542 (antisense eA*eT*eA*e[5mC]*eT*d[5mC]*dG*d[5mC]*d[5mC]*dT*dT*dT*dG*dT*dG*eA*e[5mC]*eT*e[5mC]*eG) [compound 547542] | 35 |  |
| 547543 (antisense eT*eT*eT*eT*e[5mC]*d[5mC]*dA*dT*dG*d[5mC]*dA*dT*dA*d[5mC]*dT*e[5mC]*eG*e[5mC]*e[5mC]*eT) [compound 547543] | 54 |  |
| 547544 (antisense eT*e[5mC]*eG*e[5mC]*e[5mC]*dT*dT*dT*dG*dT*dG*dA*dT*dG*d[5mC]*eG*eA*eT*eT*eT) [compound 547544] | 15 |  |
| 547545 (antisense eA*eT*eA*e[5mC]*eT*d[5mC]*dG*d[5mC]*d[5mC]*dT*dT*dT*dG*dT*dG*eA*eT*eG*e[5mC]*eG) [compound 547545] | 43 |  |

| Substance | % inhibition [2] [%] | further results |
| --- | --- | --- |
| 547546 (antisense e[5mC]*eA*eT*eA*e[5mC]*dT*d[5mC]*dG*d[5mC]*d[5mC]*dT*dT*dT*dG*dT*eG*eA*eT*eG*e[5mC]) [compound 547546] | 11 |  |
| 547547 (antisense eG*e[5mC]*eA*eT*eA*d[5mC]*dT*d[5mC]*dG*d[5mC]*d[5mC]*dT*dT*dT*dG*eT*eG*eA*eT*eG) [compound 547547] | 42 |  |
| 547548 (antisense eT*eG*e[5mC]*eA*eT*dA*d[5mC]*dT*d[5mC]*dG*d[5mC]*d[5mC]*dT*dT*dT*eG*eT*eG*eA*eT) [compound 547548] | 61 |  |
| 547549 (antisense e[5mC]*e[5mC]*e[5mC]*eA*eT*dG*d[5mC]*dA*dT*dA*d[5mC]*dT*d[5mC]*dG*d[5mC]*e[5mC]*eT*eT*eT*eG) [compound 547549] | 36 |  |
| 547550 (antisense e[5mC]*e[5mC]*e[5mC]*e[5mC]*eA*dT*dG*d[5mC]*dA*dT*dA*d[5mC]*dT*d[5mC]*dG*e[5mC]*e[5mC]*eT*eT*eT) [compound 547550] | 53 |  |
| 547551 (antisense eT*e[5mC]*e[5mC]*e[5mC]*e[5mC]*dA*dT*dG*d[5mC]*dA*dT*dA*d[5mC]*dT*d[5mC]*eG*e[5mC]*e[5mC]*eT*eT) [compound 547551] | 38 |  |
| 547552 (antisense e[5mC]*eT*e[5mC]*e[5mC]*e[5mC]*d[5mC]*dA*dT*dG*d[5mC]*dA*dT*dA*d[5mC]*dT*e[5mC]*eG*e[5mC]*e[5mC]*eT) [compound 547552] | 53 |  |
| 547553 (antisense eT*eG*e[5mC]*eT*e[5mC]*d[5mC]*d[5mC]*d[5mC]*dA*dT*dG*d[5mC]*dA*dT*dA*e[5mC]*eT*e[5mC]*eG*e[5mC]) [compound 547553] | 64 |  |
| 547554 (antisense eG*e[5mC]*eT*e[5mC]*eT*dG*dA*dT*dT*dG*dG*dG*dT*d[5mC]*dA*e[5mC]*e[5mC]*eA*e[5mC]*eA) [compound 547554] | 50 |  |
| 547555 (eT*eG*eT*e[5mC]*eT*d[5mC]*d[5mC]*dT*dT*d[5mC]*d[5mC]*dA*d[5mC]*dT*dT*eG*e[5mC]*eT*e[5mC]*e[5mC]; antisense) [compound 547555] | 58 |  |
| 547556 (eG*e[5mC]*e[5mC]*eA*eT*dT*dT*dT*dA*dT*d[5mC]*d[5mC]*d[5mC]*dT*dG*eA*eG*eA*eT*eT; antisense) [compound 547556] | 55 |  |
| 547557 (e[5mC]*eT*eG*eT*eG*d[5mC]*dT*dG*dT*dA*dT*dT*dT*dT*dG*eG*eA*eG*e[5mC]*e[5mC]; antisense) [compound 547557] | 59 |  |
| 547558 (e[5mC]*e[5mC]*e[5mC]*e[5mC]*e[5mC]*dA*dG*dT*dT*d[5mC]*d[5mC]*d[5mC]*dA*dT*dG*e[5mC]*eA*eA*eG*eG; antisense) [compound 547558] |  | % inhibition [3]: 52% |
| 547559 (eG*eA*eG*e[5mC]*eA*d[5mC]*dA*dG*dA*dT*d[5mC]*dT*d[5mC]*dT*dT*e[5mC]*eA*eA*eG*eT; antisense) [compound 547559] |  | % inhibition [3]: 69% |
| 547560 (eG*eA*e[5mC]*eG*eG*dT*d[5mC]*dA*d[5mC]*d[5mC]*d[5mC]*dA*dG*d[5mC]*d[5mC]*e[5mC]*eT*eG*eA*e[5mC]; antisense) [compound 547560] |  | % inhibition [3]: 42% |
| 547561 (eA*eA*eG*eG*eG*dA*dA*dA*dT*dT*dA*dG*dA*dG*dG*e[5mC]*eA*eG*eG*e[5mC]; antisense) [compound 547561] |  | % inhibition [3]: 57% |
| 547562 (e[5mC]*eT*eT*eT*e[5mC]*dT*dT*dG*dA*dG*dA*d[5mC]*dA*dA*dT*e[5mC]*e[5mC]*e[5mC]*eT*eT; antisense) [compound 547562] |  | % inhibition [3]: 59% |
| 547563 (eG*eT*eG*eG*eG*dA*dT*d[5mC]*dA*dG*dA*dG*dA*dA*dT*eG*eA*e[5mC]*eT*eA; antisense) [compound 547563] |  | % inhibition [3]: 48% |
| 547565 (e[5mC]*eT*eT*eA*eT*d[5mC]*dA*dG*dT*d[5mC]*d[5mC]*d[5mC]*dA*dG*dT*e[5mC]*eA*eT*eG*eT; antisense) [compound 547565] |  | % inhibition [3]: 63% |
| 547566 (eA*eA*eG*eA*eG*dT*dT*dG*dG*dG*dA*dT*dG*d[5mC]*dG*eA*e[5mC]*eT*e[5mC]*eT; antisense) [compound 547566] |  | % inhibition [3]: 76% |
| 547567 (eT*e[5mC]*e[5mC]*eA*e[5mC]*dT*d[5mC]*d[5mC]*dT*dA*dA*dG*dA*dA*dG*eT*eA*eT*eG*eG; antisense) [compound 547567] |  | % inhibition [3]: 60% |
| 547568 (eG*e[5mC]*eA*e[5mC]*e[5mC]*d[5mC]*dT*dT*dT*dT*d[5mC]*dA*dT*dT*dG*eA*eG*eA*eT*eT; antisense) [compound 547568] |  | % inhibition [3]: 70% |
| 547569 (eA*e[5mC]*eT*eA*e[5mC]*d[5mC]*dA*dT*dT*dT*dG*dG*dG*dT*dT*eG*eG*eT*eA*eG; antisense) [compound 547569] |  | % inhibition [3]: 9% |
